Results reported in ChEMBL document CHEMBL1649198, “Efflux unbalance in Pseudomonas aeruginosa isolates from cystic fibrosis patients” (2009).
Converted amounts (≈) assume the structure as drawn.

Assays:
Pseudomonas aeruginosa [1] = test: Antimicrobial activity against Pseudomonas aeruginosa isolate 2804 obtained from cystic fibrosis patient by disk diffusion method; assay type: functional
Pseudomonas aeruginosa [2] = test: Antimicrobial activity against Pseudomonas aeruginosa isolate 2716 obtained from cystic fibrosis patient by agar dilution method
Pseudomonas aeruginosa [3] = test: Antimicrobial activity against Pseudomonas aeruginosa isolate 2729 obtained from cystic fibrosis patient by disk diffusion method; assay type: functional
Pseudomonas aeruginosa [4] = test: Antimicrobial activity against Pseudomonas aeruginosa isolate 2858 obtained from cystic fibrosis patient by disk diffusion method; assay type: functional
Pseudomonas aeruginosa [5] = test: Antimicrobial activity against Pseudomonas aeruginosa isolate 3066 obtained from cystic fibrosis patient by disk diffusion method; assay type: functional
Pseudomonas aeruginosa [6] = test: Antimicrobial activity against Pseudomonas aeruginosa isolate 615S obtained from cystic fibrosis patient by disk diffusion method; assay type: functional
Pseudomonas aeruginosa [7] = test: Antimicrobial activity against ampicillin- and ticarcillin-resistant Pseudomonas aeruginosa FE60 mutant transformed with pAGH97 carrying mexXY F29S mutant by twofold macrodilution method; assay type: functional
Pseudomonas aeruginosa [8] = test: Antimicrobial activity against Pseudomonas aeruginosa isolate 2715 obtained from cystic fibrosis patient by agar dilution method
Pseudomonas aeruginosa [9] = test: Antimicrobial activity against ampicillin- and ticarcillin-resistant Pseudomonas aeruginosa FE60 mutant transformed with pAGH97 carrying mexXY F1018L mutant by twofold macrodilution method; assay type: functional
Pseudomonas aeruginosa [10] = test: Antimicrobial activity against Pseudomonas aeruginosa isolate 615R obtained from cystic fibrosis patient by disk diffusion method; assay type: functional
Pseudomonas aeruginosa [11] = test: Antimicrobial activity against Pseudomonas aeruginosa isolate 3020S obtained from cystic fibrosis patient by disk diffusion method; assay type: functional
Pseudomonas aeruginosa [12] = test: Antimicrobial activity against Pseudomonas aeruginosa isolate 2721 obtained from cystic fibrosis patient by agar dilution method
Pseudomonas aeruginosa [13] = test: Antimicrobial activity against Pseudomonas aeruginosa isolate 2998 obtained from cystic fibrosis patient by agar dilution method
Pseudomonas aeruginosa [14] = test: Antimicrobial activity against ampicillin- and ticarcillin-resistant Pseudomonas aeruginosa FE60 mutant transformed with pAGH97 carrying mexXY operon by twofold macrodilution method; assay type: functional
Pseudomonas aeruginosa [15] = test: Antimicrobial activity against Pseudomonas aeruginosa PAO1 by twofold macrodilution method; assay type: functional
Pseudomonas aeruginosa [16] = test: Antimicrobial activity against Pseudomonas aeruginosa mutGR1 overexpressing mexXY mutant by twofold macrodilution method; assay type: functional
Pseudomonas aeruginosa [17] = test: Antimicrobial activity against Pseudomonas aeruginosa isolate 3020R obtained from cystic fibrosis patient by agar dilution method
Pseudomonas aeruginosa [18] = test: Antimicrobial activity against Pseudomonas aeruginosa isolate 2933 obtained from cystic fibrosis patient by disk diffusion method; assay type: functional
Pseudomonas aeruginosa [19] = test: Antimicrobial activity against mexXY deficient ampicillin- and ticarcillin-resistant Pseudomonas aeruginosa FE60 mutant by twofold macrodilution method; assay type: functional
Pseudomonas aeruginosa [20] = test: Antimicrobial activity against mexB gene inactivated Pseudomonas aeruginosa isolate 2721 obtained from cystic fibrosis patient by agar dilution method
Pseudomonas aeruginosa [21] = test: Antimicrobial activity against mexXY operon inactivated Pseudomonas aeruginosa PAO1 by twofold macrodilution method; assay type: functional
Pseudomonas aeruginosa [22] = test: Antimicrobial activity against Pseudomonas aeruginosa isolate 3066 obtained from cystic fibrosis patient
Pseudomonas aeruginosa [23] = test: Antimicrobial activity against mexB gene inactivated Pseudomonas aeruginosa isolate 3020R obtained from cystic fibrosis patient by agar dilution method
Pseudomonas aeruginosa [24] = test: Antimicrobial activity against mexB gene inactivated Pseudomonas aeruginosa isolate 3020S obtained from cystic fibrosis patient by agar dilution method
Pseudomonas aeruginosa [25] = test: Antimicrobial activity against Pseudomonas aeruginosa isolate 615R with inactivated mexB gene obtained from cystic fibrosis patient by disk diffusion method
Pseudomonas aeruginosa [26] = test: Antimicrobial activity against Pseudomonas aeruginosa isolate 2998 obtained from cystic fibrosis patient
Pseudomonas aeruginosa [27] = test: Antimicrobial activity against mexB gene inactivated Pseudomonas aeruginosa isolate 2715 obtained from cystic fibrosis patient by agar dilution method
Pseudomonas aeruginosa [28] = test: Antimicrobial activity against Pseudomonas aeruginosa isolate 2933 obtained from cystic fibrosis patient
Pseudomonas aeruginosa [29] = test: Ratio of MIC for mexB deficient Pseudomonas aeruginosa FB1 mutant to Pseudomonas aeruginosa PAO1; assay type: functional
Pseudomonas aeruginosa [30] = test: Antimicrobial activity against mexB gene inactivated Pseudomonas aeruginosa isolate 2716 obtained from cystic fibrosis patient by agar dilution method
Pseudomonas aeruginosa [31] = test: Antimicrobial activity against Pseudomonas aeruginosa isolate 2729 obtained from cystic fibrosis patient
Pseudomonas aeruginosa [32] = test: microbe, parasite or virus in culture; settings: isolate 2715
Description: Antimicrobial activity against Pseudomonas aeruginosa isolate 2715 expressing inactivated mexB gene by disk diffusion method

Pseudomonas aeruginosa [33] = test: microbe, parasite or virus in culture; settings: isolate 2729
Description: Antimicrobial activity against Pseudomonas aeruginosa isolate 2729 expressing inactivated mexB gene by disk diffusion method

Pseudomonas aeruginosa [34] = test: microbe, parasite or virus in culture; settings: isolate 3066
Description: Antimicrobial activity against Pseudomonas aeruginosa isolate 3066 expressing inactivated mexB gene by disk diffusion method

Pseudomonas aeruginosa [35] = test: Antimicrobial activity against Pseudomonas aeruginosa isolate 2721 expressing inactivated mexB gene by disk diffusion method; assay type: functional
Pseudomonas aeruginosa [36] = test: microbe, parasite or virus in culture; settings: isolate 2716
Description: Antimicrobial activity against Pseudomonas aeruginosa isolate 2716 expressing inactivated mexB gene by disk diffusion method

Pseudomonas aeruginosa [37] = test: Antimicrobial activity against Pseudomonas aeruginosa isolate 2933 expressing inactivated mexB gene by disk diffusion method; assay type: functional
Pseudomonas aeruginosa [38] = test: microbe, parasite or virus in culture; settings: isolate 3020S
Description: Antimicrobial activity against Pseudomonas aeruginosa isolate 3020S expressing inactivated mexB gene by disk diffusion method

Pseudomonas aeruginosa [39] = test: microbe, parasite or virus in culture; settings: isolate 615R
Description: Antimicrobial activity against Pseudomonas aeruginosa isolate 615R expressing inactivated mexB gene by disk diffusion method

Pseudomonas aeruginosa [40] = test: Antimicrobial activity against Pseudomonas aeruginosa isolate 2998 expressing inactivated mexB gene by disk diffusion method; assay type: functional
Pseudomonas aeruginosa [41] = test: microbe, parasite or virus in culture; settings: isolate 3020R
Description: Antimicrobial activity against Pseudomonas aeruginosa isolate 3020R expressing inactivated mexB gene by disk diffusion method

| Structure (SMILES) | MIC (Pseudomonas aeruginosa [1]) | MIC (Pseudomonas aeruginosa [2]) | MIC (Pseudomonas aeruginosa [3]) | MIC (Pseudomonas aeruginosa [4]) | MIC (Pseudomonas aeruginosa [5]) | MIC (Pseudomonas aeruginosa [6]) | MIC (Pseudomonas aeruginosa [7]) | MIC (Pseudomonas aeruginosa [8]) | MIC (Pseudomonas aeruginosa [9]) | MIC (Pseudomonas aeruginosa [10]) | MIC (Pseudomonas aeruginosa [11]) | MIC (Pseudomonas aeruginosa [12]) | MIC (Pseudomonas aeruginosa [13]) | MIC (Pseudomonas aeruginosa [14]) | MIC (Pseudomonas aeruginosa [15]) | MIC (Pseudomonas aeruginosa [16]) | MIC (Pseudomonas aeruginosa [17]) | MIC (Pseudomonas aeruginosa [18]) | MIC (Pseudomonas aeruginosa [19]) | MIC (Pseudomonas aeruginosa [21]) | other results |
| --- | --- | --- | --- | --- | --- | --- | --- | --- | --- | --- | --- | --- | --- | --- | --- | --- | --- | --- | --- | --- | --- |
| NCC[C@H](O)C(=O)N[C@@H]1C[C@H](N)[C@@H](O[C@H]2O[C@H](CN)[C@@H](O)[C@H](O)[C@H]2O)[C@H](O)[C@H]1O[C@H]1O[C@H](CO)[C@@H](O)[C@H](N)[C@H]1O [AMIKACIN] | 128 µg/mL (≈ 219 µM) | 8 µg/mL (≈ 13.7 µM) | 16 µg/mL (≈ 27.3 µM) | 8 µg/mL (≈ 13.7 µM) | 128 µg/mL (≈ 219 µM) | 2 µg/mL (≈ 3.42 µM) | 4 µg/mL (≈ 6.83 µM) | 8 µg/mL (≈ 13.7 µM) | 8 µg/mL (≈ 13.7 µM) | 16 µg/mL (≈ 27.3 µM) | 2 µg/mL (≈ 3.42 µM) | 32 µg/mL (≈ 54.6 µM) | 16 µg/mL (≈ 27.3 µM) | 4 µg/mL (≈ 6.83 µM) | 2 µg/mL (≈ 3.42 µM) | 8 µg/mL (≈ 13.7 µM) | 32 µg/mL (≈ 54.6 µM) | 32 µg/mL (≈ 54.6 µM) | 0.5 µg/mL (≈ 0.854 µM) | – | – |
| NC[C@H]1O[C@H](O[C@H]2[C@H](O)[C@@H](O[C@H]3O[C@H](CO)[C@@H](O)[C@H](N)[C@H]3O)[C@H](N)C[C@@H]2N)[C@H](N)C[C@@H]1O [TOBRAMYCIN] | 64 µg/mL (≈ 137 µM) | 1 µg/mL (≈ 2.14 µM) | 2 µg/mL (≈ 4.28 µM) | 1 µg/mL (≈ 2.14 µM) | 16 µg/mL (≈ 34.2 µM) | 0.25 µg/mL (≈ 0.535 µM) | 0.5 µg/mL (≈ 1.07 µM) | 2 µg/mL (≈ 4.28 µM) | 1 µg/mL (≈ 2.14 µM) | 2 µg/mL (≈ 4.28 µM) | 0.5 µg/mL (≈ 1.07 µM) | 4 µg/mL (≈ 8.56 µM) | 4 µg/mL (≈ 8.56 µM) | 0.5 µg/mL (≈ 1.07 µM) | 0.5 µg/mL (≈ 1.07 µM) | 1 µg/mL (≈ 2.14 µM) | 4 µg/mL (≈ 8.56 µM) | 4 µg/mL (≈ 8.56 µM) | 0.06 µg/mL (≈ 0.128 µM) | – | – |
| CO[C@@H]1[C@@H](OC(N)=O)[C@@H](O)[C@H](Oc2ccc3c(O)c(NC(=O)c4ccc(O)c(CC=C(C)C)c4)c(=O)oc3c2C)OC1(C)C [NOVOBIOCIN] | 8 µg/mL (≈ 13.1 µM) | 32 µg/mL (≈ 52.2 µM) | 32 µg/mL (≈ 52.2 µM) | 64 µg/mL (≈ 104 µM) | 32 µg/mL (≈ 52.2 µM) | 64 µg/mL (≈ 104 µM) | – | 16 µg/mL (≈ 26.1 µM) | – | 4 µg/mL (≈ 6.53 µM) | 512 µg/mL (≈ 836 µM) | 32 µg/mL (≈ 52.2 µM) | 32 µg/mL (≈ 52.2 µM) | – | 512 µg/mL (≈ 836 µM) | 512 µg/mL (≈ 836 µM) | 16 µg/mL (≈ 26.1 µM) | 8 µg/mL (≈ 13.1 µM) | – | 32 µg/mL (≈ 52.2 µM) | MIC (Pseudomonas aeruginosa [20]): 32 µg/mL (≈ 52.2 µM); MIC (Pseudomonas aeruginosa [22]): 32 µg/mL (≈ 52.2 µM); MIC (Pseudomonas aeruginosa [23]): 16 µg/mL (≈ 26.1 µM); MIC (Pseudomonas aeruginosa [24]): 8 µg/mL (≈ 13.1 µM); MIC (Pseudomonas aeruginosa [25]): 4 µg/mL (≈ 6.53 µM); MIC (Pseudomonas aeruginosa [26]): 32 µg/mL (≈ 52.2 µM); MIC (Pseudomonas aeruginosa [27]): 8 µg/mL (≈ 13.1 µM); MIC (Pseudomonas aeruginosa [28]): 4 µg/mL (≈ 6.53 µM); fold change (FC) (Pseudomonas aeruginosa [29]): 16; MIC (Pseudomonas aeruginosa [30]): 32 µg/mL (≈ 52.2 µM); MIC (Pseudomonas aeruginosa [31]): 32 µg/mL (≈ 52.2 µM) |
| C[C@H]1[C@H](NC(=O)/C(=N\OC(C)(C)C(=O)O)c2csc(N)n2)C(=O)N1S(=O)(=O)O [AZTREONAM] | 0.25 µg/mL (≈ 0.574 µM) | 0.25 µg/mL (≈ 0.574 µM) | 0.25 µg/mL (≈ 0.574 µM) | 0.25 µg/mL (≈ 0.574 µM) | 0.25 µg/mL (≈ 0.574 µM) | 0.12 µg/mL (≈ 0.276 µM) | – | 0.5 µg/mL (≈ 1.15 µM) | – | 0.25 µg/mL (≈ 0.574 µM) | – | 0.25 µg/mL (≈ 0.574 µM) | 0.12 µg/mL (≈ 0.276 µM) | – | – | – | 0.25 µg/mL (≈ 0.574 µM) | 0.25 µg/mL (≈ 0.574 µM) | – | 0.12 µg/mL (≈ 0.276 µM) | MIC (Pseudomonas aeruginosa [32]): 0.25 µg/mL (≈ 0.574 µM); MIC (Pseudomonas aeruginosa [33]): 0.25 µg/mL (≈ 0.574 µM); MIC (Pseudomonas aeruginosa [34]): 0.25 µg/mL (≈ 0.574 µM); MIC (Pseudomonas aeruginosa [35]): 0.12 µg/mL (≈ 0.276 µM); MIC (Pseudomonas aeruginosa [36]): 0.25 µg/mL (≈ 0.574 µM); MIC (Pseudomonas aeruginosa [37]): 0.12 µg/mL (≈ 0.276 µM); MIC (Pseudomonas aeruginosa [38]): 0.25 µg/mL (≈ 0.574 µM); MIC (Pseudomonas aeruginosa [39]): 0.25 µg/mL (≈ 0.574 µM); MIC (Pseudomonas aeruginosa [40]): 0.12 µg/mL (≈ 0.276 µM); MIC (Pseudomonas aeruginosa [41]): 0.25 µg/mL (≈ 0.574 µM) |
| CC(C)(O/N=C(\C(=O)N[C@@H]1C(=O)N2C(C(=O)[O-])=C(C[n+]3ccccc3)CS[C@H]12)c1csc(N)n1)C(=O)O [CEFTAZIDIME] | 2 µg/mL (≈ 3.66 µM) | – | – | 4 µg/mL (≈ 7.32 µM) | > 8 µg/mL | – | – | – | – | – | – | 0.5 µg/mL (≈ 0.915 µM) | 0.5 µg/mL (≈ 0.915 µM) | – | – | – | – | 0.5 µg/mL (≈ 0.915 µM) | – | – | – |
